Measurements from patent publication US6251894A, “1-(1,2-disubstituted piperidinyl)-4 (fused imidazole)-piperidine derivatives” (Janssen Pharmaceuticals N.V., priority 1995, dated 2001).
Like-named read-outs stand apart in the source and are kept apart here.

What was measured:
[1] = test system: Substance P Induced Relaxation of the Pig Coronary Arteries; experiment: Antagonism of substance P induced relaxation of the pig coronary arteries; details: test compound concentration 3 × 10^-9 (unit not given), 30 min incubation
Outline: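 Inverted pig coronary artery segments, endothelium outside, in Krebs-Henseleit at 37 °C (95/5 O2/CO2), isometric tension recorded. After prostaglandin F2α (10^-5 M) precontraction, substance P (3×10^-10 M and 10^-9 M cumulative) relaxation repeated after 30 min incubation with test compound.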

[2] = test system: Substance P Induced Plasma Extravasation; experiment: Antagonism of substance P induced plasma extravasation in guinea-pigs; type: in vivo, guinea-pig; details: Cavia porcellus, 1 hour prior to substance P
Outline: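 Female guinea-pigs; compound or solvent given s.c. or p.o. 1 h before substance P (2 mg/kg, femoral artery) plus Evans Blue (30 mg/kg). Blue colouring of nose, forepaws, conjunctiva scored at 10 min; trachea and urinary bladder at 30 min after CO2 sacrifice. Values are lowest active doses in mg/kg.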

[3] = po, 10 min, p.o., conjunctiva, read-out: lowest active dose (LAD), conjunctiva
[4] = po, 10 min, p.o., forepaws, read-out: lowest active dose (LAD), forepaws
[5] = po, 10 min, p.o., nose, read-out: lowest active dose (LAD), nose
[6] = po, 0.5 h, p.o., trachea, read-out: lowest active dose (LAD), trachea
[7] = po, 0.5 h, p.o., urinary bladder, read-out: lowest active dose (LAD), urinary bladder
[8] = sc, 10 min, s.c., conjunctiva, read-out: lowest active dose (LAD), conjunctiva
[9] = sc, 10 min, s.c., forepaws, read-out: lowest active dose (LAD), forepaws
[10] = sc, 10 min, s.c., nose, read-out: lowest active dose (LAD), nose
[11] = sc, 0.5 h, s.c., trachea, read-out: lowest active dose (LAD), trachea
[12] = sc, 0.5 h, s.c., urinary bladder, read-out: lowest active dose (LAD), urinary bladder

Structure (SMILES)	% inhibition of the response to 10^-9 M substance P [1] [%]	minimal effective dose [2, 3] [mg/kg]	minimal effective dose [2, 4] [mg/kg]	minimal effective dose [2, 5] [mg/kg]	minimal effective dose [2, 6] [mg/kg]	minimal effective dose [2, 7] [mg/kg]	minimal effective dose [2, 8] [mg/kg]	minimal effective dose [2, 9] [mg/kg]	minimal effective dose [2, 10] [mg/kg]	minimal effective dose [2, 11] [mg/kg]	minimal effective dose [2, 12] [mg/kg]
O=C1Cn2ccnc2C(=C2CCN([C@@H]3CCN(C(=O)c4cc(C(F)(F)F)cc(C(F)(F)F)c4)[C@@H](Cc4ccccc4)C3)CC2)c2ccsc21 (relative stereo) [Compound 107]	96.3	10	10	10	10	10					
O=C(c1cc(C(F)(F)F)cc(C(F)(F)F)c1)N1CC[C@@H](N2CCC(=C3c4ccccc4CCn4c(CO)cnc43)CC2)C[C@@H]1Cc1ccccc1 (relative stereo) [Compound 5]	100.0	2.5	2.5	2.5	10	10					
Cc1cc(C)cc(C(=O)N2CC[C@H](N3CCC(=C4c5ccsc5CCn5ccnc54)CC3)C[C@H]2Cc2ccccc2)c1 (relative stereo) [Compound 39]	42.9						2.5	2.5	2.5	10	10
O=C(c1cc(C(F)(F)F)cc(C(F)(F)F)c1)N1CC[C@@H](N2CCC(=C3c4sccc4CCn4ccnc43)CC2)C[C@@H]1Cc1ccccc1 (relative stereo) [Compound 7]	83.1						2.5	10	2.5	10	10
O=C(c1cc(C(F)(F)F)cc(C(F)(F)F)c1)N1CC[C@@H](N2CCC(=C3c4ccccc4OCn4ccnc43)CC2)C[C@@H]1Cc1ccccc1 (relative stereo) [Compound 114]	100.0						2.5	10	2.5	10	10
Cc1cc(C)cc(C(=O)N2CC[C@H](N3CCC(=C4c5sccc5CCn5ccnc54)CC3)C[C@H]2Cc2ccccc2)c1 (relative stereo) [Compound 37]	81.9						2.5	2.5	2.5	10	10
Cc1cc(C)cc(C(=O)N2CC[C@@H](N3CCC4(CC3)c3ccccc3CCn3ccnc34)C[C@@H]2Cc2ccccc2)c1 (relative stereo) [Compound 120]	7.7						2.5	2.5	2.5	10	10
O=C(c1cc(C(F)(F)F)cc(C(F)(F)F)c1)N1CC[C@@H](N2CCC(=C3c4ccccc4CCn4ccnc43)CC2)C[C@@H]1Cc1ccccc1 (relative stereo) [Compound 22]	83.2						10	10	10	10	10
COC(=O)c1cnc2n1CCc1ccccc1C2=C1CCN([C@H]2CCN(C(=O)c3cc(C(F)(F)F)cc(C(F)(F)F)c3)[C@@H](Cc3ccccc3)C2)CC1 (racemic) [Compound 17, (±)-methyl cis-11-[1-[1-[3,5-bis(trifluoromethyl)benzoyl]-2-(phenylmethyl)-4-piperidinyl]-4-piperidinylidene]-6,11-dihydro-5H-imidazo[2,1-b][3]benzazepine-3-carboxylate]	35.3	10	10	10	10	10					
